Results on 14 compounds are retold here after PubChem BioAssay (NCI).

Some test systems named below: HCT-116 colon; HCT-15 colon; HT29 colon; LOX IMVI melanoma; M14 melanoma; MALME-3M melanoma; PC-3 prostate; SF-295 CNS; SK-MEL-5 melanoma; SR leukemia.
Common to all, as to assay: NCI-60 cell line screen, 48 h

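Cultured in 96-well plates, cells were exposed to test compound for 48 hours across five concentrations. GI50: concentration for 50% inhibition of growth. TGI is the concentration that stops growth completely.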 Bounds are passed on as bounds.

In the case of `COc1ccc(N2CN(C)CSC2=S)cc1`, the TGI in the assay with HCT-116 colon, with HCT-15 colon, in the assay on HT29 colon, in the assay on LOX IMVI melanoma, in the assay with M14 melanoma and in the assay with MALME-3M melanoma was over 100 µM in each case. In addition, the TGI in the assay with PC-3 prostate is over 100 µM; in the assay with SF-295 CNS, 86.2 µM; in the assay with SK-MEL-5 melanoma it was over 100 µM.

Consider `COC(=O)[C@@H]1[C@H](O)CCC2=C(CC(=O)c3ccoc3)[C@H](C)CC[C@]21C`, for which the TGI with HCT-116 colon, with HCT-15 colon, in the assay with HT29 colon, in the assay on LOX IMVI melanoma, in the assay with M14 melanoma and in the assay with MALME-3M melanoma was over 50 µM throughout. Further, the TGI with PC-3 prostate, in the assay on SF-295 CNS and in the assay on SK-MEL-5 melanoma was over 50 µM in each case.

In the case of `O=C(OCC1CCCN2CCCCC12)c1cccnc1` (stereo unspecified), the TGI in the assay with HCT-116 colon, with HCT-15 colon, in the assay on HT29 colon, with LOX IMVI melanoma, in the assay on MALME-3M melanoma and in the assay on PC-3 prostate was over 100 µM in each case. Moreover, the TGI in the assay on SF-295 CNS and in the assay on SK-MEL-5 melanoma was over 100 µM throughout.

As for `O=C(NC12CC3CC(CC(C3)C1)C2)C(=O)c1c[nH]c2ccc(Br)cc12`, the TGI was 45.7 µM in the assay on HCT-116 colon; over 100 µM with HCT-15 colon; 14.4 µM with HT29 colon; 18.4 µM with LOX IMVI melanoma; 31.4 µM in the assay with M14 melanoma; 68.6 µM with MALME-3M melanoma. Besides, the values for the TGI in the assay with SF-295 CNS, in the assay on SK-MEL-5 melanoma and with SR leukemia were 19.8 µM, over 100 µM and 29.6 µM, respectively.

Regarding `COc1cc(N)c2[nH]c3c(C)ccc(C)c3c2c1`, the TGI in the assay with HCT-116 colon, with HCT-15 colon, in the assay with HT29 colon, in the assay on LOX IMVI melanoma, with M14 melanoma and with MALME-3M melanoma was over 100 µM each time. Further, the TGI in the assay with SF-295 CNS, in the assay on SK-MEL-5 melanoma and with SR leukemia was over 100 µM each time.

As for `CC(C)NCC(O)c1ccc(O)c2ncccc12` (stereo unspecified), the TGI with HCT-116 colon was 87.7 µM; in the assay on HCT-15 colon it was over 100 µM; in the assay on HT29 colon, over 100 µM; in the assay on LOX IMVI melanoma, over 100 µM; in the assay with M14 melanoma it was over 100 µM; in the assay with PC-3 prostate it was over 100 µM. The TGI in the assay with SF-295 CNS is over 100 µM; in the assay with SK-MEL-5 melanoma it was over 100 µM; with SR leukemia it was 67.6 µM.

In the case of `C=CCNc1nc(O)c(/C=C2\C=Nc3ncccc32)s1`, the GI50 in the assay on HCT-116 colon is 1.52 µM; with HCT-15 colon, 2.62 µM; in the assay with HT29 colon, 3.05 µM; in the assay on LOX IMVI melanoma, 2.73 µM; in the assay on M14 melanoma, 3.45 µM; with SF-295 CNS it was 2.5 µM. Further, the GI50 in the assay with SK-MEL-5 melanoma was 2.86 µM; with SR leukemia, 0.408 µM. Also, the TGI in the assay on HCT-116 colon is over 100 µM; in the assay on HCT-15 colon, over 100 µM; with HT29 colon, over 100 µM; in the assay with LOX IMVI melanoma, over 100 µM; in the assay with M14 melanoma, 13.1 µM; in the assay on SF-295 CNS, over 100 µM. The TGI in the assay on SK-MEL-5 melanoma is over 100 µM; in the assay with SR leukemia, 88.3 µM.

As to `CCCCOc1c(C(=O)O)cc(Br)cc1C(=O)O`, the TGI in the assay with HCT-116 colon, with HCT-15 colon, in the assay with LOX IMVI melanoma, with M14 melanoma, in the assay with MALME-3M melanoma and in the assay with PC-3 prostate was over 100 µM in each case. The TGI in the assay on SF-295 CNS and with SK-MEL-5 melanoma was over 100 µM in each case.

Regarding `N/C(=N\NC(=O)c1nc2ccccc2s1)c1ccccn1`, the TGI is 19.6 µM with HCT-116 colon; 31.9 µM in the assay with HCT-15 colon; 50.7 µM in the assay with HT29 colon; over 100 µM with LOX IMVI melanoma; 23.6 µM with M14 melanoma; over 100 µM in the assay on MALME-3M melanoma. Also, the results for the TGI in the assay with PC-3 prostate, in the assay with SF-295 CNS and in the assay on SK-MEL-5 melanoma were over 100 µM, over 100 µM and 21.3 µM, respectively.

In the case of `N#CNC(=NCc1ccccc1)NCCc1c[nH]c2ccccc12`, the TGI in the assay with HCT-116 colon, in the assay on HCT-15 colon, with HT29 colon, in the assay on LOX IMVI melanoma, in the assay on M14 melanoma and in the assay with SF-295 CNS was over 100 µM each time. Also, the TGI with SK-MEL-5 melanoma is 83.3 µM; in the assay with SR leukemia, over 100 µM.

In the case of `Cn1cc(-c2nc(-c3c[nH]c4ccncc34)cs2)c2ccccc21`, the GI50 with HCT-116 colon is 1.61 µM; in the assay on HCT-15 colon, 1.37 µM; with M14 melanoma it was 1.74 µM; in the assay on MALME-3M melanoma, 1.69 µM; in the assay on PC-3 prostate, 1.45 µM; in the assay with SF-295 CNS it was 1.77 µM. Also, the TGI in the assay on HCT-116 colon is 3.04 µM; in the assay with HCT-15 colon, 2.81 µM; in the assay with M14 melanoma it was 3.4 µM; with MALME-3M melanoma, 3.23 µM; in the assay on PC-3 prostate, 2.96 µM; in the assay with SF-295 CNS it was 3.32 µM.

For `Cc1c(OCCCOc2ccc3c(=O)cc(-c4ccccc4)oc3c2C)ccc2c(=O)cc(-c3ccccc3)oc12`, the TGI with HCT-116 colon, with HCT-15 colon, in the assay with HT29 colon, in the assay with LOX IMVI melanoma, in the assay with M14 melanoma and with MALME-3M melanoma was over 100 µM each time. The TGI in the assay on SF-295 CNS, in the assay with SK-MEL-5 melanoma and in the assay on SR leukemia was over 100 µM in each case.

For the compound `NC(=O)COc1c(Br)cc(Br)cc1Br`, the TGI in the assay on HCT-116 colon, with HCT-15 colon, with HT29 colon, with M14 melanoma, in the assay on MALME-3M melanoma and with SF-295 CNS was over 100 µM in each case. In addition, the TGI in the assay on SK-MEL-5 melanoma and in the assay with SR leukemia was over 100 µM each time.

Consider `CC(=O)Oc1c2c(c(OC(C)=O)c3c1n(C(C)=O)c1ccccc1n3C(C)=O)n(C(C)=O)c1ccccc1n2C(C)=O`, for which the TGI is 13 µM in the assay on HCT-15 colon; 13 µM with HT29 colon; 24.6 µM with LOX IMVI melanoma; 20.7 µM in the assay with M14 melanoma; 7.56 µM in the assay on MALME-3M melanoma; 28.9 µM in the assay with SF-295 CNS. The TGI in the assay with SK-MEL-5 melanoma is 39 µM; in the assay on SR leukemia it was 7.69 µM.
